Data published in patent publication US20100183684A1, “Oral vaccination” (Bio Life Science, priority 2002, published 2010).
Structures can show the parent of a compound that is named as a salt.

Tested on: caviar extract
Test: Antibody induction against orally fed caviar extract in mice, measured by ELISA
Format: in vivo
Settings: Balb/c mice, gastric acid reducing agent with 2 mg caviar protein extract orally, fed simultaneously or with a time delay, not against daily diet; for induction of IgE antibodies against caviar extract: ELISA OD 405/450 nm
Method: Four groups (A to D) with five Balb/c mice each were treated in the following way: • Group A: Oral administration of Zantac (ULSAL®, active agent: 20 microg ranitidine per mouse, single dose per mouse one hour before feeding […] with antigen) and antigen (2 mg caviar protein extract per mouse), • Group B: Oral administration of a mixture of Ulcogant (active agent: 2 mg sucralfate per mouse) and antigen (2 mg caviar protein extract per mouse), • Group C: Comparative example with intraperitoneal administration of caviar antigen (2 mg) and aluminum hydroxide as an adjuvant, • Group D: Comparative example with oral administration of antigen (2 mg).
The antigen used was caviar extract. As a reference regarding the caviar extract used, the publication by Untersmayr E, Schöll I, Förster-Waldl E, Walter F, Riemer A, Boltz-Nitulescu G, Scheiner O, Jensen-Jarolim E. J Allergy and Immun. 2002; 109 (6): 1034-5 is cited. The antigen contained therein has a molecular weight of 118 kDa.
The obtained results are rendered in FIG. 1. […] Groups A and B were given the antigen in conjunction with a gastric acid reducing agent orally according to the invention, while for comparison purposes group C was immunized according to a standard scheme for IgE induction, and group D was given the antigen orally without gastric acid reducing agent.

Row | Compound | induction of IgE antibodies against caviar extract | induction of IgG antibodies against caviar extract
1 | CNC(=C[N+](=O)[O-])NCCSCc1ccc(CN(C)C)o1 [Zantac, ranitidine hydrochloride] | lasting induction | lasting induction
2 | aluminum sucrose hydrogen sulfate [Ulcogant] | lasting induction | lasting induction
